US11406629B2, “Solid forms comprising 4-amino-2-(2,6-dioxopiperidine-3-yl)isoindoline-1,3-dione and a coformer, compositions and methods of use thereof” (Celgene Corporation, priority 2013, dated 2022)
Values after ≈ are worked out from the molar mass of the structure shown. Where two headings read alike, the source gives them in different places.

Columns and labels:
[1] = Solubility of pomalidomide in various solvents at ambient temperature (visual inspection, solvent aliquot addition); assay type: physicochemical
Experimental: Solubility was estimated by treating a weighed sample of pomalidomide with measured aliquots of the test solvent at ambient temperature, with shaking and/or sonication between aliquots. Dissolution was determined by visual inspection. Solubility numbers were calculated by […]. The actual solubilities may be greater than the numbers calculated because of the use of solvent aliquots that were too large or because of slow dissolution rates. […] The solubility number is expressed as “greater than” if dissolution occurred on addition of the first solvent aliquot.

[2] = Slurry of Form B of pomalidomide in EtOH, 0.1 N HCl, or water (solid form conversion); assay type: physicochemical; settings: slurring in EtOH, 0.1 N HCl, or water for 3 days
Excerpt: In one embodiment, without being limited by particular theory, Form B is a metastable form of pomalidomide.

Row | solubility ([1]; Acetone) [µg/mL] | solubility ([1]; DMF:acetone (1:2)) [µg/mL] | solubility ([1]; Hexafluoroisopropanol) [µg/mL] | solubility ([1]; THF:water (95:5)) [µg/mL] | solubility ([1]; organic solvent or mixture, thermodynamic from solid, 2,2,2-trifluoroethanol, read-out: Solubility) [µg/mL] | solubility ([1]; organic solvent or mixture, thermodynamic from solid, 2-methyltetrahydrofuran, read-out: Solubility) [µg/mL] | solubility ([1]; organic solvent or mixture, thermodynamic from solid, Acetonitrile, read-out: Solubility) [µg/mL] | solubility ([1]; organic solvent or mixture, thermodynamic from solid, DMF, read-out: Solubility) [µg/mL] | solubility ([1]; organic solvent or mixture, thermodynamic from solid, DMF:methanol (1:1), read-out: Solubility) [µg/mL] | solubility ([1]; organic solvent or mixture, thermodynamic from solid, DMF:methanol (1:2), read-out: Solubility) [µg/mL] | solubility ([1]; organic solvent or mixture, thermodynamic from solid, Dichloromethane, read-out: Solubility) [µg/mL] | solubility ([1]; organic solvent or mixture, thermodynamic from solid, Methanol, read-out: Solubility) [µg/mL] | solubility ([1]; organic solvent or mixture, thermodynamic from solid, acetone:water (95:5), read-out: Solubility) [µg/mL] | solubility ([1]; tetrahydrofuran (THF)) [µg/mL] | Solid form stability on slurrying [2] | Structure (SMILES)
1 | 900 (≈ 3.29 mM) | 6000 (≈ 22 mM) | 2300 (≈ 8.42 mM) | 3500 (≈ 12.8 mM) | < 1000 | < 1000 | < 1000 | > 5000 | 4200 (≈ 15.4 mM) | 2400 (≈ 8.78 mM) | < 1000 | < 1000 | < 1000 | 1100 (≈ 4.03 mM) | – | Nc1cccc2c1C(=O)N(C1CCC(=O)NC1=O)C2=O (stereo not drawn) [Pomalidomide, 4-amino-2-(2,6-dioxopiperidine-3-yl)isoindoline-1,3-dione]
2 | – | – | – | – | – | – | – | – | – | – | – | – | – | – | converts to Form A of pomalidomide | Nc1cccc2c1C(=O)N(C1CCC(=O)NC1=O)C2=O (stereo not drawn) [Form B of pomalidomide, 4-amino-2-(2,6-dioxopiperidine-3-yl)isoindoline-1,3-dione]
